Calls of active or inactive are those of the source. No cut-off for these calls is given here.
How the values were obtained:
HCT-116 = assay: Antiproliferative activity against human HCT116 cells after 48 hrs by MTT assay; assay type: functional, cell-based; details: HCT-116, 48 h
HCT-15 = assay: Antiproliferative activity against human HCT15 cells after 48 hrs by MTT assay; assay type: functional, cell-based; details: HCT-15, 48 h
NCI-H460 [1] = assay: Antiproliferative activity against human NCI-H460 cells after 48 hrs by MTT assay; assay type: functional, cell-based; details: NCI-H460, 48 h
[2] = Antiproliferative activity against human U87 cells after 48 hrs by MTT assay; assay type: functional, cell-based, U-87MG ATCC; details: U-87 MG
DU-145 = assay: Antiproliferative activity against human DU145 cells after 48 hrs by MTT assay; assay type: functional, cell-based; details: DU-145, 48 h
PC-3 = assay: Antiproliferative activity against human PC3 cells after 48 hrs by MTT assay; assay type: functional, cell-based; details: PC-3, 48 h
A549 = assay: Antiproliferative activity against human A549 cells after 48 hrs by MTT assay; assay type: functional, cell-based; details: A549, 48 h
NCI-H460 [3] = assay: Induction of morphological changes in human NCI-H460 cells assessed as […] deformation at 1.25 to 5 uM after 48 hrs by phase contrast microscopic analysis; assay type: functional, cell-based
NCI-H460 [4] = assay: Induction of morphological changes in human NCI-H460 cells assessed as cell shrinkage at 1.25 to 5 uM after 48 hrs by phase contrast microscopic analysis; assay type: functional, cell-based
NCI-H460 [5] = assay: Induction of apoptosis in human NCI-H460 cells assessed as reduction in viable cells at 1.25 to 5 uM after 48 hrs by phase contrast microscopic analysis; assay type: functional, cell-based
NCI-H460 [6] = assay: Induction of apoptosis in human NCI-H460 cells assessed as horse-shoe shaped nuclei at 2.5 to 10 uM after 24 hrs by DAPI staining-based fluorescence microscopic analysis; assay type: functional, cell-based
NCI-H460 [7] = assay: Induction of reactive oxygen species generation in human NCI-H460 cells after 6 hrs by DCFDA staining-based method; assay type: functional, cell-based
NCI-H460 [8] = assay: Induction of reactive oxygen species generation in human NCI-H460 cells after 6 hrs in presence of NAC by DCFDA staining-based method; assay type: functional, cell-based
[9] = Inhibition of porcine brain tubulin polymerization after 1 hr in presence of GTP by fluorescence assay; design: species or system Sus scrofa
NCI-H460 [10] = assay: Cell cycle arrest in human NCI-H460 cells assessed as accumulation at G0/G1 phase at 1.25 uM after 24 hrs by propidium iodide staining-based flow cytometry (reference value: 49.17%); assay type: functional
NCI-H460 [11] = assay: Cell cycle arrest in human NCI-H460 cells assessed as accumulation at S phase at 1.25 uM after 24 hrs by propidium iodide staining-based flow cytometry (reference value: 15.55%); assay type: functional
NCI-H460 [12] = assay: Cell cycle arrest in human NCI-H460 cells assessed as accumulation at G2/M phase at 1.25 uM after 24 hrs by propidium iodide staining-based flow cytometry (reference value: 34.71%); assay type: functional
NCI-H460 [13] = assay: Cell cycle arrest in human NCI-H460 cells assessed as accumulation at G0/G1 phase at 2.5 uM after 24 hrs by propidium iodide staining-based flow cytometry (reference value: 49.17%); assay type: functional
NCI-H460 [14] = assay: Cell cycle arrest in human NCI-H460 cells assessed as accumulation at S phase at 2.5 uM after 24 hrs by propidium iodide staining-based flow cytometry (reference value: 15.55%); assay type: functional
NCI-H460 [15] = assay: Cell cycle arrest in human NCI-H460 cells assessed as accumulation at G2/M phase at 2.5 uM after 24 hrs by propidium iodide staining-based flow cytometry (reference value: 34.71%); assay type: functional
NCI-H460 [16] = assay: Cell cycle arrest in human NCI-H460 cells assessed as accumulation at G0/G1 phase at 5 uM after 24 hrs by propidium iodide staining-based flow cytometry (reference value: 49.17%); assay type: functional
NCI-H460 [17] = assay: Cell cycle arrest in human NCI-H460 cells assessed as accumulation at S phase at 5 uM after 24 hrs by propidium iodide staining-based flow cytometry (reference value: 15.55%); assay type: functional
NCI-H460 [18] = assay: Cell cycle arrest in human NCI-H460 cells assessed as accumulation at G2/M phase at 5 uM after 24 hrs by propidium iodide staining-based flow cytometry (reference value: 34.71%); assay type: functional

Row | Structure (SMILES) | IC50 (HCT-116) | IC50 (HCT-15) | IC50 (NCI-H460 [1]) | IC50 (DU-145) | IC50 (PC-3) | IC50 (A549) | IC50 [2] | other results
1 | COc1cc(/C=C/C(=O)c2ccc(Cl)cc2)ccc1OCCCCN1CCCCC1 | > 20 µM | 8.11 µM | 10.2 µM | 7.74 µM | 6.84 µM | 8.99 µM | 8.01 µM | –
2 | COc1ccc(C(=O)/C=C/c2ccc(OCCN3CCOCC3)c(OC)c2)cc1 | > 20 µM | 7.54 µM | 9.96 µM | 8.74 µM | 9.19 µM | 8.21 µM | 7.09 µM | –
3 | COc1cc(/C=C/C(=O)c2ccc(Cl)cc2Cl)ccc1OCCCN1CCCc2ccccc21 | > 20 µM | > 20 µM | > 20 µM | > 20 µM | 8.17 µM | > 20 µM | > 20 µM | –
4 | COc1ccc(C(=O)/C=C/c2ccc(OCCCN3CCc4ccccc43)c(OC)c2)cc1 | > 20 µM | 19.9 µM | > 20 µM | 16.1 µM | > 20 µM | 18.7 µM | 15.2 µM | –
5 | COc1cc(/C=C/C(=O)c2ccc(Cl)cc2Cl)ccc1OCCCN1CC(C)OC(C)C1 (stereo unspecified) | > 20 µM | > 20 µM | > 20 µM | > 20 µM | 8.87 µM | > 20 µM | > 20 µM | –
6 | COc1cc(/C=C/C(=O)c2ccc(Cl)cc2)ccc1OCCCN1CCCc2ccccc21 | > 20 µM | > 20 µM | > 20 µM | 18.1 µM | > 20 µM | > 20 µM | 16.2 µM | –
7 | COc1cc(/C=C/C(=O)c2ccccc2)ccc1OCCCN1CCCc2ccccc21 | > 20 µM | > 20 µM | > 20 µM | > 20 µM | > 20 µM | > 20 µM | 19.8 µM | –
8 | COc1cc(/C=C/C(=O)c2ccc(Br)cc2)ccc1OCCCCN1CCCCC1 | > 20 µM | 8.97 µM | > 20 µM | > 20 µM | 7.54 µM | 9.06 µM | 4.01 µM | –
9 | COc1ccc(/C=C\c2cc(OC)c(OC)c(OC)c2)cc1O [COMBRETASTATIN A4] | 9.12 µM | 8.87 µM | 0.048 µM | 0.28 µM | 3.53 µM | 9.29 µM | 9.75 µM | –
10 | COc1cc(/C=C/C(=O)c2ccccc2)ccc1OCCCCN1CCCCC1 | > 20 µM | > 20 µM | > 20 µM | > 20 µM | 9.18 µM | > 20 µM | > 20 µM | –
11 | COc1cc(/C=C/C(=O)c2ccc(C(F)(F)F)cc2)ccc1OCCN1CCOCC1 | > 20 µM | > 20 µM | > 20 µM | > 20 µM | 6.17 µM | 19.1 µM | > 20 µM | –

Continued, in another order:

Row | IC50 (HCT-116) | IC50 (HCT-15) | IC50 (NCI-H460 [1]) | IC50 (DU-145) | IC50 (PC-3) | IC50 (A549) | Structure (SMILES) | IC50 [2] | other results
12 | 6.48 µM | 6.36 µM | 8.1 µM | 3.87 µM | > 20 µM | 5.32 µM | COc1cc(/C=C/C(=O)c2ccccc2OC)ccc1OCCCN1CC(C)OC(C)C1 (stereo unspecified) | 5.03 µM | –
13 | > 20 µM | > 20 µM | > 20 µM | 9.74 µM | 8.89 µM | 12.1 µM | COc1cc(/C=C/C(=O)c2ccc(Br)cc2)ccc1OCCN1CCOCC1 | > 20 µM | –
14 | > 20 µM | > 20 µM | > 20 µM | > 20 µM | > 20 µM | 19.1 µM | COc1cc(/C=C/C(=O)c2ccc(Br)cc2)ccc1OCCCN1CCCc2ccccc21 | > 20 µM | –
15 | > 20 µM | > 20 µM | 16.3 µM | 5.73 µM | 7.29 µM | 9.48 µM | COc1cc(/C=C/C(=O)c2ccc(Cl)cc2Cl)ccc1OCCCCN1CCCCC1 | 6.09 µM | –
16 | > 20 µM | > 20 µM | > 20 µM | > 20 µM | > 20 µM | > 20 µM | COc1ccc(C(=O)/C=C/c2ccc(OCCCN3CCCc4ccccc43)c(OC)c2)cc1 | 18.2 µM | –
17 | > 20 µM | > 20 µM | 8.16 µM | 17.1 µM | 8.93 µM | 16.5 µM | COc1cc(/C=C/C(=O)c2ccc(Br)cc2)ccc1OCCCN1CCCCC1 | > 20 µM | –
18 | 19.9 µM | 18.2 µM | > 20 µM | 6.74 µM | 5.12 µM | > 20 µM | COc1cc(/C=C/C(=O)c2ccc(Cl)cc2Cl)ccc1OCCN1CCOCC1 | > 20 µM | –
19 | 2.01 µM | 3.24 µM | 1.63 µM | 2.73 µM | 1.95 µM | 3.13 µM | COc1cc(/C=C/C(=O)c2ccccc2O)ccc1OCCCN1CCCCC1 | 2.87 µM | –
20 | 6.78 µM | 11 µM | 9.89 µM | 2.02 µM | 7.89 µM | 5.36 µM | COc1ccc(C(=O)/C=C/c2ccc(OCCCN3CCOCC3)c(OC)c2)cc1 | 7.12 µM | –
21 | 7.87 µM | 8.64 µM | 4.18 µM | 3.27 µM | > 20 µM | 7.42 µM | COc1ccc(C(=O)/C=C/c2ccc(OCCCN3CC(C)OC(C)C3)c(OC)c2)cc1 (stereo unspecified) | 5.67 µM | –
22 | 5.45 µM | 8.69 µM | > 20 µM | > 20 µM | > 20 µM | 9.12 µM | COc1cc(/C=C/C(=O)c2ccc(C)cc2)ccc1OCCCN1CC(C)OC(C)C1 (stereo unspecified) | 4.21 µM | –
23 | 1.73 µM | 5.34 µM | 1.48 µM | 5.08 µM | 9.53 µM | 3.29 µM | COc1ccc(C(=O)/C=C/c2ccc(OCCCN3CCCCC3)c(OC)c2)cc1 | 6.3 µM | Activity (NCI-H460 [3]): Active; Activity (NCI-H460 [4]): Active; Activity (NCI-H460 [5]): Active; Activity (NCI-H460 [6]): Active; Activity (NCI-H460 [7]): Dose-dependent effect; Activity (NCI-H460 [8]): inactive; IC50 [9]: 9.66 µM; Activity (NCI-H460 [10]): 47.5%; Activity (NCI-H460 [11]): 12.21%; Activity (NCI-H460 [12]): 39.3%; Activity (NCI-H460 [13]): 46.74%; Activity (NCI-H460 [14]): 9.3%; Activity (NCI-H460 [15]): 42.88%; Activity (NCI-H460 [16]): 42.8%; Activity (NCI-H460 [17]): 8.12%; Activity (NCI-H460 [18]): 48.85%
24 | 19.2 µM | > 20 µM | > 20 µM | > 20 µM | > 20 µM | > 20 µM | COc1cc(/C=C/C(=O)c2ccc(Cl)cc2Cl)ccc1OCCCN1CCc2ccccc21 | 19.8 µM | –
25 | 3.97 µM | 4.03 µM | 8.96 µM | 5.74 µM | 4.78 µM | 3.7 µM | COc1ccc(C(=O)/C=C/c2ccc(OCCCn3nc(C)cc3C)c(OC)c2)cc1 | 6.93 µM | –

From ChEMBL document CHEMBL4043140, “Synthesis of different heterocycles-linked chalcone conjugates as cytotoxic agents and tubulin polymerization inhibitors” (Bioorg Med Chem, 2017)
